Data published in article PMC10261210 (Cancer Chemotherapy and Pharmacology, 2023).

Experiments:
[1] = system: patients with relapsed or refractory advanced solid tumors; experiment: 3 + 3 dose escalation: DLT, MTD, RP2D; type: in vivo; settings: for MTD: 28-day cycles; for recommended phase 2 dose (RP2D): human, in vivo
Excerpt: Prior to the initiation of QW dose escalation, the initial cycle length of 22 days was changed to 28 days by protocol amendment to improve clinical feasibility and better facilitate future combination studies. Patients enrolled prior to this protocol amendment in an ongoing Q2D dose escalation cohort continued on the 22-day cycle schedule until the cohort was full and all patients had been evaluated for dose-limiting toxicity (DLT). For both Q2D and QW regimens, dose escalation progressed according to the incidence of DLT in the first treatment cycle (either 22 days or 28 days). […] The MTD was defined as the highest dose level that generated DLT in 0/3 or 1/6 patients. On a case-by-case basis, the sponsor in collaboration with the principal investigators determined if intrapatient dose escalation was appropriate. Patients who had any dose reductions were not permitted to dose escalate.
The starting dose for the Q2D dose escalation phase was 20 mg, which was equivalent to one-tenth of the highest non-severely toxic dose (HNSTD) established in monkey toxicology studies. Dose escalation included planned dose levels of 40 mg, 80 mg, 135 mg, 200 mg, and 280 mg. […] In addition, a seventh Q2D cohort was to enroll sufficient patients (approximately 16) with any advanced solid tumor (excluding lymphoma) to ensure that 12 patients completed protocol-specified dosing and PK assessments scheduled during cycle 1.
The study was initially designed to investigate a Q2D schedule. Subsequently, a protocol amendment introduced planned QW dose escalation cohorts. The alteration in the dosing regimen from Q2D to QW was expected to reduce drug accumulation and increase Cmax while maintaining similar steady-state AUC. In addition, it was hypothesized that the increased Cmax might lead to a higher degree of pathway inhibition for a window of time within the dosing interval, without compromising overall dose density. Planned QW doses to be administered on days 1, 8, 15, and 22 of a 28-day cycle were a starting dose of 400 mg, followed by dose level increases of 200 mg (i.e., doses of 600 mg, 800 mg, and 1000 mg) in each subsequent cohort until the MTD/RP2D was reached.

[2] = system: relapsed or refractory advanced solid tumors, melanoma; experiment: response by investigator assessment (RECIST 1.1); type: in vivo, human
Excerpt: Adverse events were coded using the Medical Dictionary for Regulatory Activities (MedDRA) Version 19.0 and were graded according to the National Cancer Institute (NCI) Common Terminology Criteria (CTC) for adverse events (CTCAE) (Version 4.03). The assessment period for treatment emergent adverse events (TEAEs) was from the first dose of study treatment to 30 days after the last dose of study medication, or until the start of subsequent antineoplastic therapy, whichever occurred first. Following baseline evaluation, response was assessed by investigators every two cycles by computed tomography or magnetic resonance imaging according to Response Evaluation Criteria in Solid Tumors (version 1.1).
The safety population was defined as all patients who received any amount of tovorafenib. The DLT-evaluable population was defined as all patients in the dose escalation phase of the study who either experienced DLT during cycle 1 or who completed at least 75% of the planned doses and had sufficient follow-up data to allow the investigators and sponsor to determine whether DLT had occurred. […] The PK-evaluable population included all patients who had sufficient dosing data and concentration–time data to permit calculation of PK parameters.

BRAF V600E mutant = system: BRAF V600E mutant; set-up: method as in doi:10.1016/S1359-6349(10)71810-3; settings: preclinical studies; cited from earlier work
[3] = system: relapsed or progressive LGGs harboring BRAF alterations; set-up: method as in ref 33 = [33]; 33. Kilburn L, Landi D, Leary S, Ziegler DS, Baxter P, Franson A, McCowage G, Waanders AJ, Van der Lugt J, Yalon Oren M, Gerber NU, Gottardo NG, Khuong-Quang D-A, Nysom K, Bailey S, Hernáiz Driever P; settings: interim analysis, first 25 enrolled patients with ≥ 6 months of follow-up, QW monotherapy; cited from earlier work
[4] = dose expansion Cohort 1, BRAF+ Naïve, Q2D n = 16
[5] = dose expansion Cohort 2, BRAF+ Previously treated, Q2D n = 6
[6] = dose expansion Cohort 3, NRAS+ Naïve, Q2D n = 14
[7] = dose expansion Cohort 4, NRAS + Previously treated, Q2D n = 1
[8] = dose expansion Cohort 5, BRAF/NRAS WT Naïve, Q2D n = 6
[9] = dose expansion Cohort 6, BRAF/NRAS WT Previously, Q2D n = 9
[10] = dose expansion Cohort 9, NRAS+ Naïve, QW n = 17
[11] = dose expansion, Q2D n=68 (melanoma cohorts, PK cohort, unknown)

C[C@@H](NC(=O)c1ncnc(N)c1Cl)c1ncc(C(=O)Nc2cc(C(F)(F)F)c(Cl)cn2)s1 [tovorafenib]
MTD ([1]; Q2D): 200 mg | MTD ([1]; QW): 600 mg | recommended phase 2 dose (RP2D) [1]: 200 mg | recommended phase 2 dose (RP2D) ([1]; 28 days): 600 mg | median PFS ([2]; BRAF mutation-positive, RAF and MEK inhibitor-naïve cohort, 95% CI 1.9–14.3): 5.7 months | sustained PFS in an individual patient ([2]; BRAF mutation-positive, RAF and MEK inhibitor-naïve cohort, in response and on treatment at data cutoff): 45 months | duration of stable disease in one patient ([2]; NRAS-mutated melanoma, cohort 7): 42 months | best response of stable disease ([2]; Q2D dose escalation, 5 of 22 evaluable patients): 23% | responses ([2]; Q2D dose escalation, 22 evaluable patients): no responses | Objective response rate ([2]; Q2D expansion phase, 10 of 68 evaluable patients, 95% CI 7–25): 15% | median duration of response ([2]; Q2D expansion, 68 evaluable patients): 6.0 months | median progression-free survival (PFS) ([2]; Q2D expansion, 68 evaluable patients, 95% CI 1.8–3.6): 1.9 months | partial responses ([2]; QW dose escalation, 2 in 14 evaluable patients (endometrial cancer 600 mg, thyroid cancer 800 mg)): 14% | best response of stable disease ([2]; QW dose expansion, 9 of 17 evaluable patients): 53% | responses ([2]; QW dose expansion, 17 evaluable patients, NRAS mutation-positive melanoma naïve to RAF and MEK inhibitors): no responses | responses (partial) ([2]; cohort 1, BRAF mutation-positive melanoma, RAF and MEK inhibitor-naïve, Q2D, 8 of 16): 50% | responses ([2]; cohort 2, BRAF mutation-positive, RAF and MEK inhibitor-previously treated, Q2D, 1 of 6): 17% | responses ([2]; cohort 3, NRAS mutation-positive, RAF and MEK inhibitor-naïve, Q2D, 1 of 14): 7% | Best overall response: Complete response ([2]; dose escalation, Q2D n = 22): 0 n (%) | Best overall response: Partial response ([2]; dose escalation, Q2D n = 22): 0 n (%) | Best overall response: Progressive disease ([2]; dose escalation, Q2D n = 22): 17 (77) n (%) | Best overall response: Stable disease ([2]; dose escalation, Q2D n = 22): 5 (23) n (%) | Objective response rate ([2]; dose escalation, Q2D n = 22): 0 n (%) | Best overall response: Complete response ([2]; dose escalation, QW n = 14): 0 n (%) | Best overall response: Partial response ([2]; dose escalation, QW n = 14): 2 (14) n (%) | Best overall response: Progressive disease ([2]; dose escalation, QW n = 14): 8 (57) n (%) | Best overall response: Stable disease ([2]; dose escalation, QW n = 14): 4 (29) n (%) | Objective response rate ([2]; dose escalation, QW n = 14): 2 (14) n (%) | Best overall response: Complete response ([2]; dose escalation, Total n=36): 0 n (%) | Best overall response: Partial response ([2]; dose escalation, Total n=36): 2 (6) n (%) | Best overall response: Progressive disease ([2]; dose escalation, Total n=36): 25 (69) n (%) | Best overall response: Stable disease ([2]; dose escalation, Total n=36): 9 (25) n (%) | Objective response rate ([2]; dose escalation, Total n=36): 2 (6) n (%) | Best overall response: Complete response [2, 4]: 0 n (%) | Best overall response: Partial response [2, 4]: 8 (50) n (%) | Best overall response: Progressive disease [2, 4]: 6 (38) n (%) | Best overall response: Stable disease [2, 4]: 2 (13) n (%) | Objective response rate [2, 4]: 8 (50) n (%) | Best overall response: Complete response [2, 5]: 0 n (%) | Best overall response: Partial response [2, 5]: 1 (17) n (%) | Best overall response: Progressive disease [2, 5]: 2 (33) n (%) | Best overall response: Stable disease [2, 5]: 3 (50) n (%) | Objective response rate [2, 5]: 1 (17) n (%) | Best overall response: Complete response [2, 6]: 0 n (%) | Best overall response: Partial response [2, 6]: 1 (7) n (%) | Best overall response: Progressive disease [2, 6]: 9 (64) n (%) | Best overall response: Stable disease [2, 6]: 4 (29) n (%) | Objective response rate [2, 6]: 1 (7) n (%) | Best overall response: Complete response [2, 7]: 0 n (%) | Best overall response: Partial response [2, 7]: 0 n (%) | Best overall response: Progressive disease [2, 7]: 1 (100) n (%) | Best overall response: Stable disease [2, 7]: 0 n (%) | Objective response rate [2, 7]: 0 n (%) | Best overall response: Complete response [2, 8]: 0 n (%) | Best overall response: Partial response [2, 8]: 0 n (%) | Best overall response: Progressive disease [2, 8]: 5 (83) n (%) | Best overall response: Stable disease [2, 8]: 1 (17) n (%) | Objective response rate [2, 8]: 0 n (%) | Best overall response: Complete response [2, 9]: 0 n (%) | Best overall response: Partial response [2, 9]: 0 n (%) | Best overall response: Progressive disease [2, 9]: 6 (67) n (%) | Best overall response: Stable disease [2, 9]: 3 (33) n (%) | Objective response rate [2, 9]: 0 n (%) | Best overall response: Complete response [2, 10]: 0 n (%) | Best overall response: Partial response [2, 10]: 0 n (%) | Best overall response: Progressive disease [2, 10]: 8 (47) n (%) | Best overall response: Stable disease [2, 10]: 9 (53) n (%) | Objective response rate [2, 10]: 0 n (%) | Best overall response: Complete response [2, 11]: 0 n (%) | Best overall response: Partial response [2, 11]: 10 (15) n (%) | Best overall response: Progressive disease [2, 11]: 37 (54) n (%) | Best overall response: Stable disease [2, 11]: 21 (31) n (%) | Objective response rate [2, 11]: 10 (15) n (%) | Best overall response: Complete response ([2]; dose expansion, QW n=17): 0 n (%) | Best overall response: Partial response ([2]; dose expansion, QW n=17): 0 n (%) | Best overall response: Progressive disease ([2]; dose expansion, QW n=17): 8 (47) n (%) | Best overall response: Stable disease ([2]; dose expansion, QW n=17): 9 (53) n (%) | Objective response rate ([2]; dose expansion, QW n=17): 0 n (%) | Best overall response: Complete response ([2]; dose expansion, Total n=85): 0 n (%) | Best overall response: Partial response ([2]; dose expansion, Total n=85): 10 (12) n (%) | Best overall response: Progressive disease ([2]; dose expansion, Total n=85): 45 (53) n (%) | Best overall response: Stable disease ([2]; dose expansion, Total n=85): 30 (35) n (%) | Objective response rate ([2]; dose expansion, Total n=85): 10 (12) n (%) | IC50 (BRAF V600E mutant): 7.1 nM | clinical benefit rate [3]: 91% | overall response rate [3]: 64%
